Experimental data: ChEMBL document CHEMBL1153391 (J Med Chem, 2009)
pIC50, pKi: −log10 of the molar value.

Key:
[1] = biological target: Procathepsin L (Homo sapiens, UniProt P07711); experiment: Inhibition of cathepsin L
[2] = system: Plasmodium falciparum; experiment: Antiplasmodial activity against Plasmodium falciparum FCBR; assay type: functional, organism-based
[3] = biological target: Cathepsin B (Homo sapiens, UniProt P07858); experiment: Inhibition of cathepsin B
[4] = Inhibition of Plasmodium falciparum falcipain-2
[5] = Cytotoxicity against mouse DC
[6] = Cytotoxicity against mouse J774.1 cells; assay type: cell-based
[7] = Apparent permeability across human Caco-2 cells; assay type: ADME, cell-based
[8] = Cytotoxicity against human HEK293T cells; assay type: cell-based; conditions: HEK-293T
[9] = Apparent permeability from apical to basolateral side of human Caco-2 cells
[10] = Apparent permeability from basolateral to apical side of human Caco-2 cells

Procathepsin L, sequence (P07711 whole entry): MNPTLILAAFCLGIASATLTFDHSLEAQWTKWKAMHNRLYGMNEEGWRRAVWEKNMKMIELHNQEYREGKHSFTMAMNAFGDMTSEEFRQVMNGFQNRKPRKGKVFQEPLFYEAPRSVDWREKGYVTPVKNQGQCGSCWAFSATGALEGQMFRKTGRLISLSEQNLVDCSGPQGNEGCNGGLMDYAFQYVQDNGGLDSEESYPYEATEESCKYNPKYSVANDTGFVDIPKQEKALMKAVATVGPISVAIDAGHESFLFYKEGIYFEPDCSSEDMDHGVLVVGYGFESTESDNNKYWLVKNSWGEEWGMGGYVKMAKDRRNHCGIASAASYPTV

Compound | pKi [1] | pIC50 [2] | pKi [3] | pKi [4] | also measured
CN(C)C(=O)/C=C/CNC(=O)CN1C(=O)[C@@H](COC(=O)Nc2ccc(Cl)cc2C(F)(F)F)N=C(c2ccccc2)c2ccccc21 | 5.72 | < 4.00 | 6.07 | 7.12 | 
CC(=O)/C=C/[C@H](CCc1ccccc1)NC(=O)CN1C(=O)[C@@H](COC(=O)Nc2ccc(Cl)cc2C(F)(F)F)N=C(c2ccccc2)c2ccccc21 | 5.12 |  | 5.08 |  | 
COC(=O)/C=C/[C@H](CCc1ccccc1)NC(=O)CN1C(=O)[C@@H](COC(=O)Nc2ccc(Cl)cc2C(F)(F)F)N=C(c2ccccc2)c2ccccc21 | 5.57 |  | 4.86 |  | 
CN(C)C(=O)/C=C/[C@H](CCc1ccccc1)NC(=O)CN1C(=O)[C@@H](COC(=O)Nc2ccc(Cl)cc2C(F)(F)F)N=C(c2ccccc2)c2ccccc21 | 5.13 |  | 5.19 | 7.12 | 
COC(=O)/C=C/CNC(=O)CN1C(=O)[C@@H](COC(=O)Nc2ccc(Cl)cc2C(F)(F)F)N=C(c2ccccc2)c2ccccc21 | 5.08 | 4.92 | 5.14 | 7.77 | pIC50 [5]: 4.52; pIC50 [6]: 4.51; Papp [7]: 3.82 ×10⁻⁶ cm/s; pIC50 [8]: 4.51
N#C/C=C/CNC(=O)CN1C(=O)[C@@H](COC(=O)Nc2ccc(Cl)cc2C(F)(F)F)N=C(c2ccccc2)c2ccccc21 | 5.49 | 4.44 | 5.00 | 6.72 | 
CC(=O)/C=C/CNC(=O)CN1C(=O)[C@@H](COC(=O)Nc2ccc(Cl)cc2C(F)(F)F)N=C(c2ccccc2)c2ccccc21 | 5.23 | 5.03 | 5.22 |  | 
CN/C(=N/CCSCc1nc[nH]c1C)NC#N [CIMETIDINE] |  |  |  |  | Papp A→B [9]: 0.56 ×10⁻⁶ cm/s; Papp B→A [10]: 1.5 ×10⁻⁶ cm/s
CC(C)C[C@H](NC(=O)[C@H]1O[C@@H]1C(=O)O)C(=O)NCCCCN=C(N)N [E-64] |  |  |  | 6.54 | 
CC[C@]1(O)C[C@@H]2CN(CCc3c([nH]c4ccccc34)[C@@](C(=O)OC)(c3cc4c(cc3OC)N(C)[C@H]3[C@@](O)(C(=O)OC)[C@H](OC(C)=O)[C@]5(CC)C=CCN6CC[C@]43[C@@H]65)C2)C1 [VINBLASTINE] |  |  |  |  | Papp [7]: 0.51 ×10⁻⁶ cm/s
